# Data: patent publication KR20230003036A, “렌바티닙 메실레이트의 결정형 xi 및 이의 제조방법” (청두 이스턴 바이오파마슈티컬 컴퍼니 리미티드, priority 2020, dated 2021)
# Columns and labels:
# [1] = Powder flowability experiment (tap density, compression coefficient); type: physicochemical
# [2] = Impurity stability under storage conditions (HPLC purity after 30 days); type: physicochemical; details: high temperature 60℃, high humidity 92.5%, high humidity 75% and light irradiation, sample of Example 11
# [3] = in vivo; details: rat, po, 1.25 mg/kg
# [4] = Dissolution experiment of crystalline form XI capsules (paddle method, pH 4.0 medium); type: physicochemical; details: capsules of form XI (Example 12), 900ml, 37℃, 75r/min, UV 250nm
# [5] = Hygroscopicity experiment of crystalline form XI (DVS, dynamic vapour sorption); type: physicochemical; details: 25℃, sample of Example 1
# [6] = Crystal form stability under storage conditions (XRD, day 0 vs day 30); type: physicochemical; details: storage conditions of Table 3 (high temperature 60℃, high humidity 92.5%, high humidity 75%, light irradiation), sample of Example 11
"compression coefficient (comparison) ([1]; compression coefficient (%) = 100% (tap density - bulk density)/tap density, form C (made according to CN100569753C) vs form XI (Example 12))",change of purity (HPLC) [2],AUC(0-t) at 24 h [3],Cmax [3],Tmax [3],time at which dissolution is basically complete [4],weight loss ([5]; relative humidity 0~40%),weight gain by moisture absorption ([5]; relative humidity 40~80%),flowability (comparison) ([1]; form XI (Example 12) vs form C (made according to CN100569753C)),change of crystal form (XRD pattern) [6],Compound
결정형 XI의 압축 계수보다 훨씬 더 높으며,,,,,,,,,,"COc1cc2nccc(Oc3ccc(NC(=O)NC4CC4)c(Cl)c3)c2cc1C(N)=O [결정형 C, 렌바티닙 메실레이트]"
,큰 변화가 없었다,22900 ± 2840 ng·h/mL,2290 ± 216 ng/mL,4 ± 1.73 h,~120 min,~0.33%,~0.25%,결정형 C의 유동성보다 훨씬 우수하며,결정형 변화가 없었다,"COc1cc2nccc(Oc3ccc(NC(=O)NC4CC4)c(Cl)c3)c2cc1C(N)=O [결정형 XI, 렌바티닙 메실레이트, 메실레이트 이수화물]"
